Experimental data taken from US5741671A, “Isolation cloning and expression of transmembrane water channel aquaporin 1(AQP1)” (The Johns Hopkins University, priority 1995, dated 1998).
Entries after “also recorded” stand apart in the source; their conditions may differ.

How the values were obtained:
[1] = biological target: T1, AQP5 (Rattus norvegicus, UniProt P47864); assay: Xenopus oocyte swelling assay, AQP5 (salivary) cRNA-injected oocytes (Example 11); type: cell-based
T1 construct: the entire open reading frame of the salivary cDNA; expressed in transfected cells; host or cells: Xenopus oocytes injected with cRNA from expression construct pXβG
Description: Functional Expression in Oocytes-A 1-kb BamHI fragment containing the 5'untranslated sequence and the entire open reading frame of the salivary cDNA was blunt-end-ligated into the BglII site of the Xenopus expression construct pXβG, which contains the HindIII-Pst insert of pSP64T in pBS II KS (Preston et al., 1992, Science, 256:385-387). Capped cRNA was synthesized in vitro after digestion with Xbal (Preston et al., 1993). Defolliculated stage V-VI Xenopus oocytes were injected with 50 nl of water or up to 5 ng of sample cRNAs and incubated for 3 days at 18° C. in 200 mosM modified Barth's buffer. The oocytes were transferred to 70 mosM modified Barth's buffer at 21° C.; oocyte swelling was monitored by videomicroscopy, and the coefficient of osmotic water permeability (Pf) was determined (Preston et al., 1992, 1993). Uptake of [^14 C]urea or [^14 C]glycerol was measured by incubating oocytes in 200 mosM Barth's buffer for 10-20 min at 21° C. followed by washing and SDS solubilization. No increase in ion conductance was found when control oocytes were compared to RNA-injected oocytes by two electrode voltage clamps (Preston et al., 1992). […]

[2] = system: Red cell water channels; settings: cited from earlier work
[3] = biological target: T2, AQP1 (Homo sapiens, UniProt P29972); assay: Xenopus oocyte osmotic swelling assay, AQP1 RNA-injected oocytes (Example 4); type: cell-based; set-up: expressed in transfected cells; host or cells: Xenopus laevis oocytes injected with in vitro transcribed AQP1 RNA; settings: for Pf (osmotic water permeability): AQP1 RNA-injected (10 ng) oocytes, 22° C.
T2 sequence (P29972 1-269): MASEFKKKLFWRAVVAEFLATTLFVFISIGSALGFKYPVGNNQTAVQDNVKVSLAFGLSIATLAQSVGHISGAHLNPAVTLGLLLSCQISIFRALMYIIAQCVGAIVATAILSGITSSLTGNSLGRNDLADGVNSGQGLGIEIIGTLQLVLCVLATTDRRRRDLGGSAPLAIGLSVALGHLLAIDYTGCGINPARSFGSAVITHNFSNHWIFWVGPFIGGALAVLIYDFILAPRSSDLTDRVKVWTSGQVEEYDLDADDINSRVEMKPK
Description: Expression of AQP1 in Xenopus oocytes. Oocytes were removed from female Xenopus laevis frogs and prepared as described by Dascal (CRC Crit. Rev. Biochem., 1987, 22:317-373). Oocytes were injected with 0.05 microliters of water (control) or the same volume of water containing 1-10 nanograms of AQP1 RNA. The oocytes were incubated for up to 96 hours at 18° C. in modified Barth's buffer (88 mM NaCl, 1 mM KCl, 0.8 mM MgSO4, 0.3 mM Ca(NO3)2, 0.4 mM CaCl2, 2.4 mm NaHCO3, 10 mM HEPES, pH=7.4, total osmolality=200 mOsm/kg) also containing antibiotics. The whole oocytes were then removed and total cellular protein was dissolved in 40 microliters of buffer containing 1% (w/v) SDS and analyzed by immunoblot (Towbin et al., 1979, Proc. Natl. Acad. Sci. USA 76:4350-4354).
A swelling assay was adapted from that of published work (Fischbarg et al., 1990, Proc. Natl. Acad. Sci. USA 87:3244-3247; Zhang et al., 1990, J. Biol. Chem. 265: 15375-15378). Control-injected oocytes and AQP1 RNA-injected oocytes were incubated at 22° C. in modified Barth's solution diluted with distilled H2 O to 30% of the original tonicity. The oocytes were then observed by videomicroscopy. Swelling was monitored with a Nikon phase-contrast microscope equipped for videorecording. The longest (D1) and shortest (D2) diameters of the oocytes were measured at 15- to 30-second intervals. Oocyte volumes (V) at each time point were calculated relative to volume at the initial observation (Vo):
The change in relative volume with time, d(V/Vo)/dt, up to 8 minutes (or time of oocyte rupture) was fitted by computer to a quadratic polynomial, and initial rates of swelling were calculated. Osmotic water permeability (Pf, in cm/s) was calculated from osmotic swelling data, initial oocyte surface area (S=0.045 cm^2), and the molar volume of water (Vw =18 cm^3 /mol) (Zhang et al., 1990, J. Biol. Chem. 15375):
Pf =Vo ×d(V/Vo)dt]/[S×Vw x(osmm
After 72 hours, control- or AQP1 RNA-injected (10 ng) oocytes were treated as indicated. Some oocytes were left in standard Barth's buffer prior to measurement of osmotic swelling at 22° C. Other oocytes were incubated 5 minutes in Barth's buffer containing 0.3 mM or 3 mM HgCl2 as described, then removed and incubated for 15 min in 5 mM β-mercaptoethanol prior to osmotic swelling in the presence of β-mercaptoethanol.
After 72 hours, control-injected oocytes and oocytes injected with 0.1 to 10 ng of AQP1 RNA were studied for osmotic swelling at 22° C. The amount of AQP1 protein was estimated by dilutional immunoblotting (Denker et al., 1988, J. Biol. Chem. 263:15634; Laemmli, 1970, Nature 227:680; Towbin et al., 1979, Proc. Natl. Acad. Sci., 76:4350; Davis and Bennett, 1982, 257:5816).

T1 sequence (P47864 whole entry): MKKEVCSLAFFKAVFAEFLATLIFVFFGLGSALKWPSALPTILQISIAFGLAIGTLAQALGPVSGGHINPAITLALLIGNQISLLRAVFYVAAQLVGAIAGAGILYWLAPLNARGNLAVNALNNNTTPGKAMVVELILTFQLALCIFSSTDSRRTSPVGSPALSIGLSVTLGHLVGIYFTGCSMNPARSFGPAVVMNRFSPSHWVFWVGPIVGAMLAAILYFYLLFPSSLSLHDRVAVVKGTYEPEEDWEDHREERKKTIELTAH

[Cl][Hg][Cl] [HgCl2]
inhibition of Pf of AQP5-expressing oocytes ([1]; 1 mM HgCl2, 5 min): comparable reduction; also recorded: reversibly inhibited | inhibition of the red cell / membrane water channel ([2]; submillimolar concentrations): can be inhibited by submillimolar concentrations | inhibition of swelling of AQP1 RNA-injected oocytes ([3]; 0.3 mM HgCl2): inhibited | Pf (osmotic water permeability) ([3]; 0.3 mM HgCl2 5 minutes): 80.7 cm/s x 10^-4 | Pf (osmotic water permeability) ([3]; 3.0 mM HgCl2 5 minutes): 34.5 cm/s x 10^-4

OCCS [β-mercaptoethanol]
restoration of Pf of AQP5-expressing oocytes after HgCl2 ([1]; 5 mM β-mercaptoethanol 30 min after 1 mM HgCl2): restored | restoration of the membrane water channel after HgCl2 ([2]; 5 mM β-mercaptoethanol): may be restored | restoration of swelling after HgCl2 inhibition ([3]; 5 mM β-mercaptoethanol after 0.3 mM HgCl2): restored
